Consider 9 molecules from ChEMBL document CHEMBL1201862, “PubChem BioAssay data set” (2004).

Experiment [1] has as its target G-protein coupled receptor 35 (Homo sapiens, UniProt Q9HC97). In words: inhibition of zaprinast-stimulated GPR35 beta-arrestin translocation – imaging, U2OS, beta-arrestin-GFP, zaprinast agonist, primary screen (AID 2058).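 Also: antagonist potency meaning inhibition of agonist-induced arrestin redistribution.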 The format is functional.
In experiment [2] the target is Heat shock protein HSP 90-alpha (Homo sapiens, UniProt P07900). Type of experiment: functional, organism-based.
Experiment [3] deals with T1, Acyl-homoserine lactone acylase PvdQ (Pseudomonas aeruginosa (strain LESB58), UniProt Q9I194).
T1 sequence (Q9I194 whole entry): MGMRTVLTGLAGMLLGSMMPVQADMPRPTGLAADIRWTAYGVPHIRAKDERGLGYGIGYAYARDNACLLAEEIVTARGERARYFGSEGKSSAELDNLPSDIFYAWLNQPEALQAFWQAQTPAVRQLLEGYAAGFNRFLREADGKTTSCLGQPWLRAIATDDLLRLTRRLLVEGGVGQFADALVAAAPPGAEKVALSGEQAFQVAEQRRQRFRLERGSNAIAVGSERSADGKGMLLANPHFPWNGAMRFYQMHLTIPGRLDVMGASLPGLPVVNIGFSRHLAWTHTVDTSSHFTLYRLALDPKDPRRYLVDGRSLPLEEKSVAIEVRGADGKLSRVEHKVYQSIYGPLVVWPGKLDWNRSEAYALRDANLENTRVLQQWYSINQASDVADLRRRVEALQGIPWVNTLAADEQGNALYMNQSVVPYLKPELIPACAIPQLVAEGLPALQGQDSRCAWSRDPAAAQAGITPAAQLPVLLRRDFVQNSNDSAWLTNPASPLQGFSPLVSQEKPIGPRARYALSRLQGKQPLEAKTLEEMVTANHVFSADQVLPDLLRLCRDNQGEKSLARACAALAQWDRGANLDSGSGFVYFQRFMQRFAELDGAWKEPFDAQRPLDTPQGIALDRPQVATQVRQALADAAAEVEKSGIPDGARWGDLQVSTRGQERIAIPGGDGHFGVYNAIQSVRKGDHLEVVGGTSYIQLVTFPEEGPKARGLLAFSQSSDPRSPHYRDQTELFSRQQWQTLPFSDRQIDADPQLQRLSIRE
Kind of experiment: PvdQ acylase enzyme activity blockers – biochemical, fluorescence, plate reader and imaging, cherry-picks, dose response (AID 493231).

Experiment [4] in a line: viability of PTEN-deleted HCT116 cells – cell-based, HCT116 PTEN knockout, dose response (AID 1047).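 Also: HCT116 colon tumor cells with PTEN knocked out; cells exposed to compound for 60 hours before readout; potency for loss of cell viability measured by luminescence.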 Type of experiment: functional.
The nature of experiment [5]: viability of HCT116 lacking mutant beta-catenin – cell-based, human colon tumor, dose response (AID 1045).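 Also: HCT116 colon tumor cells with beta catenin knocked out; cells exposed to compound for 60 hours.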 Type of experiment: functional.
Experiment [6] concerns Streptococcus sp. 'group A'. In words: Streptococcus pyogenes SK(-)GAS viability under kanamycin – luminescence, BacTiterGlo, confirmation, counter-screen for streptokinase expression inhibitor project, dose response (AID 1900). The format is functional, organism-based.
The target in the next experiment is Beta-galactosidase (Escherichia coli, UniProt Q8VNN2). Kind of experiment: PubChem AID 485352. The format is functional.
Experiment [7] in a line: Trypanosoma cruzi growth suppression in host cells – NIH3T3 host cells, beta-gal luminescence, confirmation (AID 2044).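 Also: intracellular parasites grown in NIH/3T3 mouse fibroblasts as host cells; luminescent beta-galactosidase reporter signal from transgenic T. cruzi replicating inside host cells; inhibitors lower the luminescence signal.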 Type of experiment: functional, cell-based.
The target in experiment [8] is T2, Type-1 angiotensin II receptor (Homo sapiens, UniProt P30556).
T2 sequence (P30556 whole entry): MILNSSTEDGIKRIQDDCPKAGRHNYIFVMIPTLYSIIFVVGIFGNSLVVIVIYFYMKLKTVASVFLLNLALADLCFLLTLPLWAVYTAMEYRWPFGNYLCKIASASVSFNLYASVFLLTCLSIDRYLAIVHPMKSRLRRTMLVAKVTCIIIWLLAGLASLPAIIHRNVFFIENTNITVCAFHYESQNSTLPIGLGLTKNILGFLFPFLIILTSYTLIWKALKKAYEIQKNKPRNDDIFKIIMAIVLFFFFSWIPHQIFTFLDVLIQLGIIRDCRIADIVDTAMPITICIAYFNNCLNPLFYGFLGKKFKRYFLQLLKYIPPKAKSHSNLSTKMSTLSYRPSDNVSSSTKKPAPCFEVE
Kind of experiment: antagonism of angiotensin II type 1 receptor – cell-based, uHTS hits, selectivity assay for APJ receptor antagonist project, dose response (AID 463214).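 Also: antagonist potency against angiotensin II stimulated AT1 response.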 Type of experiment: functional.

Experiment [9] can be described thus: NIH3T3 cell viability loss – ATP luminescence, mouse fibroblasts, counter-screen, dose response (AID 2010).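 Also: cells exposed to compound for about 90 hours before reading.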 Type of experiment: functional, cell-based. Background: Counterscreens check selectivity or assay interference.
In another experiment the test system is Streptococcus. In words: GAS UMAA2166 growth inhibition – luminescence, BacTiterGlo, counter-screen for streptokinase expression inhibitor project, dose response (AID 1915).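 Also: potency for reduction of bacterial viability or growth.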 The format is functional, organism-based.
The nature of experiment [10]: THP-1 cell cytotoxicity, dose response, cytotoxicity control for non-replicating M. tuberculosis project (AID 489025). Type of experiment: functional.
A short description of experiment [11]: HepG2 cell cytotoxicity, dose response, cytotoxicity control for non-replicating M. tuberculosis project (AID 489018). Type of experiment: functional. The following applies: Mycobacterium tuberculosis.
Experiment [12] can be described thus: Vero E6 cell cytotoxicity, dose response, cytotoxicity control for non-replicating M. tuberculosis project, secondary assay (AID 492998). Type of experiment: functional, VeroE6. The following applies: Vero C1008.
Another experiment in a line: cells. Type of experiment: functional.
The target of experiment [13] is T3, Aryl hydrocarbon receptor (Homo sapiens, UniProt P35869).
T3 sequence (P35869 whole entry): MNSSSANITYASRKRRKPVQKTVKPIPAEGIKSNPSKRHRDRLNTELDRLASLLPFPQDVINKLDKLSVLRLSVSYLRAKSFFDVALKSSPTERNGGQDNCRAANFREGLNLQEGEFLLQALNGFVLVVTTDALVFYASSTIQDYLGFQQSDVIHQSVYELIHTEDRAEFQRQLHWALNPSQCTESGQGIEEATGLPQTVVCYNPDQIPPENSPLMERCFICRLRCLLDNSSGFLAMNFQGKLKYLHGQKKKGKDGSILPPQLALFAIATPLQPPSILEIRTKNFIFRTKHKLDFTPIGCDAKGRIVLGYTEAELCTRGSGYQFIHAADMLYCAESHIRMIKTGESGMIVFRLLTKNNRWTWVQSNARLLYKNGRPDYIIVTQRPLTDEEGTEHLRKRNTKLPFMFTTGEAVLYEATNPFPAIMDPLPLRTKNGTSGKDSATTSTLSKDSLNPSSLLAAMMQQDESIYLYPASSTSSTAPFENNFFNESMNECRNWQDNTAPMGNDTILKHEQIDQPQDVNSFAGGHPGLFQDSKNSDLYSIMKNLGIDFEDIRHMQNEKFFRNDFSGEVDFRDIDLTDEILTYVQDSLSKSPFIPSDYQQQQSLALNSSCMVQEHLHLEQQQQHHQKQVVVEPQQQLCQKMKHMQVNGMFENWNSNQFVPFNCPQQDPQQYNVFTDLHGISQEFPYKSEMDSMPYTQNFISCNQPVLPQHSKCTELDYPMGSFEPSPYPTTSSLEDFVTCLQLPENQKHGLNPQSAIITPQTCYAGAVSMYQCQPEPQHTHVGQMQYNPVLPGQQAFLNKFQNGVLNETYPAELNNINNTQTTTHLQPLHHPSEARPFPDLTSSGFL
In words: Luminescence-based cell-based high throughput dose response assay for activators of the Aryl Hydrocarbon Receptor (AHR). [Related pubchem assays: 2796 (Primary screen (AHR activators in singlicate)), 2845 (Confirmation screen (AHR activators in triplicate)), 434939 (Counterscreen (PXR activators in triplicate)), 2804 (Summary (AHR activators))]. The format is ADME.

Experiment [14] deals with DNA damage-inducible transcript 3 protein (Mus musculus, UniProt P35639). The format is functional, Cricetulus griseus.
A further experiment deals with Trypsin (Sus scrofa, UniProt P00761). In words: trypsin protease activity blockade – biochemical, quenched peptide fluorescence, cherry-pick, selectivity assay for Rce1 protease inhibitor project, dose response (AID 488789).
Another experiment concerns the target T4, CAAX prenyl protease 2 (Saccharomyces cerevisiae S288c, UniProt Q03530).
T4 sequence (Q03530 whole entry): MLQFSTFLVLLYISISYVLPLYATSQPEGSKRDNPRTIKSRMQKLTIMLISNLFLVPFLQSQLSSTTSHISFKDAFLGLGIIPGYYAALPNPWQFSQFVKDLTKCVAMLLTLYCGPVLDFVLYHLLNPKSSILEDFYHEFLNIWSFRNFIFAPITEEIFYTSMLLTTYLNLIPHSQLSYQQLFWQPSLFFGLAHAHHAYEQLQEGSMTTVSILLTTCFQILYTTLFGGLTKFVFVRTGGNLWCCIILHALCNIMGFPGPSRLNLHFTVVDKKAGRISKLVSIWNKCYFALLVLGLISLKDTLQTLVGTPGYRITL
The format is biochemical.

The target in the next experiment is T5, Streptokinase A (Streptococcus pyogenes serotype M1, UniProt P10520).
T5 sequence (P10520 whole entry): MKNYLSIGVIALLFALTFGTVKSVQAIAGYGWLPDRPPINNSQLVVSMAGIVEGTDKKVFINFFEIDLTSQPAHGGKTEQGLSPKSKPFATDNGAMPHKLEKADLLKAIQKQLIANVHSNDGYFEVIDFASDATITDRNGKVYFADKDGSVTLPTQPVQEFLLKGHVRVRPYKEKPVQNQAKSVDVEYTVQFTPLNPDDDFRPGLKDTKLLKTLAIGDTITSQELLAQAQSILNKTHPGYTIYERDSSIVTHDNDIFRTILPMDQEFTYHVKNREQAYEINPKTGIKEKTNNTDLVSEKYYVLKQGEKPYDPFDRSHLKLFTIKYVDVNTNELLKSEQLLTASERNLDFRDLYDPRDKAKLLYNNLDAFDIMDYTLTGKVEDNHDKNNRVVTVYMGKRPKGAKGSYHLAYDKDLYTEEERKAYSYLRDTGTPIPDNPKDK
Kind of experiment: viability-normalized secreted streptokinase activity reduction – plasminogen activation absorbance, OD405, dose response (AID 1914).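 Also: secreted streptokinase activity via plasminogen activation per viability signal from cell pellet.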 The format is functional, Streptococcus pyogenes M1 GAS.

A short description of experiment [15]: Luminescence Cell-Based Dose Retest to Confirm Inhibitors of Cancer Stem Cells. [Related pubchem assays (depositor defined):AID2717, AID2721]. The note with it: Homo sapiens. The format is functional.
Experiment [16] addresses DNA dC->dU-editing enzyme APOBEC-3A (Homo sapiens, UniProt P31941). In words: A3A deaminase inhibition for selectivity – biochemical, dose response (AID 504722). The format is functional.
Experiment [17] has as its target DNA dC->dU-editing enzyme APOBEC-3G (Homo sapiens, UniProt Q9HC16). Kind of experiment: Dose Response confirmation of small molecule APOBEC3G DNA Deaminase Inhibitors via a fluorescence-based single-stranded DNA deaminase assay. [Related pubchem assays (depositor defined):AID493012, AID493028]. The format is functional.

The source made the active and inactive calls.

Chain of G-protein coupled receptor 35 (Q9HC97 whole entry): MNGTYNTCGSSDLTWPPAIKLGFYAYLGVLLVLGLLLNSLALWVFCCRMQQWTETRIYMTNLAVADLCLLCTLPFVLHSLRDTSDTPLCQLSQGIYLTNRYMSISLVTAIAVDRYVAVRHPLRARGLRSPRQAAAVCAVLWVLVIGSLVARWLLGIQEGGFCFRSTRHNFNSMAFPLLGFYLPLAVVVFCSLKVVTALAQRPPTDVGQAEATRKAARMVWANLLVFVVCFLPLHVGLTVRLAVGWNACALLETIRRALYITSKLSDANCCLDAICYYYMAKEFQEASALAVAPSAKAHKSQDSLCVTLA
Chain of DNA damage-inducible transcript 3 protein (P35639 whole entry): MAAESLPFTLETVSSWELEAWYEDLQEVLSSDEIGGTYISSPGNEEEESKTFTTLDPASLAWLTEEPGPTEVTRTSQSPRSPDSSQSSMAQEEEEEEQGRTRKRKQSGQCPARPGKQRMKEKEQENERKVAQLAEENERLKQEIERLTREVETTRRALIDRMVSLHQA
Chain of Trypsin (P00761 whole entry): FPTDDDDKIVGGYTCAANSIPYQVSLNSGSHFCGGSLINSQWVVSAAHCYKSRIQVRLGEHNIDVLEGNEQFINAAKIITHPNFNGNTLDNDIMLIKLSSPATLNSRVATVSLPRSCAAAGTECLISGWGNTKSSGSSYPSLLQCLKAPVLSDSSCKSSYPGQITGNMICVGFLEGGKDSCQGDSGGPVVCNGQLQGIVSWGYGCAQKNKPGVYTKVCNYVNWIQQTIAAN
Chain of DNA dC->dU-editing enzyme APOBEC-3A (P31941 whole entry): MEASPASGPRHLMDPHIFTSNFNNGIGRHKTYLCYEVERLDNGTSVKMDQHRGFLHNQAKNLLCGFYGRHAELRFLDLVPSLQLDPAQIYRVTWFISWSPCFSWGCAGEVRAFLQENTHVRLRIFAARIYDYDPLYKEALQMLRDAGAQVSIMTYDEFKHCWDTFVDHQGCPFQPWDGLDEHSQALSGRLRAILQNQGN
Chain of DNA dC->dU-editing enzyme APOBEC-3G (Q9HC16 whole entry): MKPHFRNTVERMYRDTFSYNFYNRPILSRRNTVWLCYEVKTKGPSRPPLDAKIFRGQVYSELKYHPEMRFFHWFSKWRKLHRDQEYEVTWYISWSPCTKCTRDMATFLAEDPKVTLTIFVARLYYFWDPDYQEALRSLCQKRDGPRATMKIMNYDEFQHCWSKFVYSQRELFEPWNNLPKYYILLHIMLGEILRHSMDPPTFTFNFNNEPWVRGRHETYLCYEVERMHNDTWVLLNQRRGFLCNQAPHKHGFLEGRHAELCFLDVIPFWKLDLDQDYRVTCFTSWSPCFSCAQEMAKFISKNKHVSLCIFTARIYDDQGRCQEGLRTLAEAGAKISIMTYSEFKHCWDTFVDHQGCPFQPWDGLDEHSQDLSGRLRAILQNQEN
Chain of Beta-galactosidase (Q8VNN2 whole entry): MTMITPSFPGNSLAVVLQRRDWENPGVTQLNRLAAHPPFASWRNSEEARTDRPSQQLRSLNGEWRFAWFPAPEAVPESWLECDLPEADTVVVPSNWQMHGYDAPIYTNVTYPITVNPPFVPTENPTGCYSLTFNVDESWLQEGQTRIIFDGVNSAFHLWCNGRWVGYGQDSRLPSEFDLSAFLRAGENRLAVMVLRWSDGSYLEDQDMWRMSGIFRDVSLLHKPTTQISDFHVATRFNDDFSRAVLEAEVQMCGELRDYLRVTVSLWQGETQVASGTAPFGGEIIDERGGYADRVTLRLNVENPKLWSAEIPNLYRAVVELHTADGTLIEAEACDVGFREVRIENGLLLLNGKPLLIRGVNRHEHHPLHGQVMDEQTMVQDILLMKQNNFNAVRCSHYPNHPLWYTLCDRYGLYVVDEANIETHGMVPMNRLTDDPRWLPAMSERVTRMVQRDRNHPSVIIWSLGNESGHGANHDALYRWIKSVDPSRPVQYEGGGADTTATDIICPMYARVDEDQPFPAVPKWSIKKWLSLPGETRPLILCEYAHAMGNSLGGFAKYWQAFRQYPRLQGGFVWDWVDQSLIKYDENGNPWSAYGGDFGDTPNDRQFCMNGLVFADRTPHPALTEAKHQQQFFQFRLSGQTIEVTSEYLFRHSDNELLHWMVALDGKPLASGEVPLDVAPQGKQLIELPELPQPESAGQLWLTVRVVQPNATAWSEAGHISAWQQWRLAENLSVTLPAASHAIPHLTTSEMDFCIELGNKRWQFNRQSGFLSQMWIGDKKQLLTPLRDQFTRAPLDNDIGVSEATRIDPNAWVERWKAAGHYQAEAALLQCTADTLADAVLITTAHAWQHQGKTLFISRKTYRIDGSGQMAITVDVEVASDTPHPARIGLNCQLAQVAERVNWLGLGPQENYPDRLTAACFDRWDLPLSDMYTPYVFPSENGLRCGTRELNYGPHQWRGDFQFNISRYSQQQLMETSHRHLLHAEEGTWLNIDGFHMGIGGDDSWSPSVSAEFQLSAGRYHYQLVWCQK

What is called IC50 is the midpoint of a concentration-inhibition curve. By AC50 is commonly meant the midpoint of the concentration-response curve, whichever way the signal moves. In the case of `CN(C)/C=C/C(=O)c1ccc(N2CCN(c3ncc(C(F)(F)F)cc3Cl)CC2)cc1`, in experiment [1], the IC50 was 0.53 µM (active). Also, the half-maximal activity concentration (AC50) in experiment [2] is 4.29 µM (active).
As to `Cc1ccc(S(=O)(=O)NCc2ccc3c(c2)OCO3)cc1C`, the AC50 in experiment [3] is 70.4 µM (active).
By EC50 is commonly meant the concentration needed to bring the measured effect to its halfway point. Regarding `Oc1ccc(F)cc1-c1cc(-c2ccc3c(c2)OCCO3)[nH]n1`, the EC50 is 46.6 µM (active) in experiment [4] and 25.9 µM (active) in [5]. Besides, in [3], the AC50 is > 100 µM (inactive).
One may read the CC50 as the concentration giving 50% cytotoxicity. Regarding `N=C1S/C(=C\c2ccco2)C(=O)N1c1nccs1`, the EC50 in experiment [6] is 3.66 µM (active); at Beta-galactosidase it was > 40 µM (inactive); in [7], 2.11 µM (active); in [9], > 30 µM (not active); in the experiment on Streptococcus, 9.61 µM (active). The IC50 was 7.86 µM (active) in experiment [8] and 0.2 µM (active) in “cells”. The cytotoxic concentration (CC50) in experiment [10] is 15.7 µM (active); in experiment [11] it was > 20 µM (active); in experiment [12] it was 9.33 µM (active).
Turning to `CCC(C)NS(=O)(=O)c1ccc(OC)c(Cl)c1Cl` (stereo not drawn), the half-maximal activity concentration (AC50) in experiment [3] was 10 µM (active).
For `CCOC(=O)Cc1cc(-c2ccc(O)cc2)nc2ccc3ccccc3c12`, the EC50 in experiment [13] was 1.47 µM (active). In addition, in experiment [14], the “Absolute IC50 (CHOP)” value worked out at 10 µM.
In the case of `c1ccc(-n2nnnc2SCc2cn3cccnc3n2)cc1`, the AC50 on Trypsin was 18.6 µM (active); at CAAX prenyl protease 2, 10.5 µM (active).
As to `CC(NS(=O)(=O)OCC(Cl)(Cl)Cl)c1ccc(C(C)(C)C)cc1` (stereo not drawn), in [1], the IC50 is 1.46 µM (active). The EC50 in [6] was 4.61 µM (active); on Streptokinase A it was 4.06 µM (active); in the experiment on Streptococcus, 12.8 µM (active). Further, the concentration at half-maximal activity (AC50) in experiment [15] is 2.77 µM (active).
Regarding `CCc1nnc(S)n1/N=C/c1c(O)ccc2ccccc12`, the values for the IC50 in experiment [16] and in [17] were > 100 µM (inactive) and 4 µM (active), respectively.
